{
  "source": "patent US20260207760A1",
  "about": "“COMBINATIONS OF CD33 ANTIBODY DRUG CONJUGATE WITH CHEMOTHERAPEUTIC AGENTS” (Glykos Biomedical Oy, priority 2022, published 2026)",
  "key": {"KG-1 cells": {"system": "KG-1 cells", "experiment": "Toxicity of chemotherapeutic agents, KG-1 cells (PrestoBlue viability)", "assay_type": "cell-based", "settings": "4 days", "protocol": "Toxicity of chemotherapeutic agents was tested with high CD33-positive KG-1 cell line (DSMZ-German Collection of Microorganisms and Cell Cultures; Cat. No. ACC 14). KG-1 cells were seeded to non-treated 96-well plate 15000 cells/well and diluted compounds were added to cells in duplicates. Dilution series (1:10) of compounds were prepared starting from 20 μM to 0.2 nM and when added to cells they diluted 2× more. Cell control was untreated cells in culture medium.\nCells with chemotherapeutic agents were cultured for 4 days and then the viability was measured with PrestoBlue cell viability reagent according to the manufacturer's (Life Technologies) instructions. Results were calculated from 5-hour Prestoblue reaction and the percentage of viable cells was calculated by dividing the sample absorbance value with cell control value."}, "HL-60 cells": {"system": "HL-60 cells", "experiment": "Toxicity assay of chemotherapeutic agents, HL-60 cells (PrestoBlue viability)", "assay_type": "cell-based, human", "protocol": "HL-60 cells (ATCC®, cat. no. CCL-240™), derived from human promyelocytic leukemia, were cultured in Iscove's Modified Dulbecco's Medium (Gibco, Life Technologies) supplemented with 20% heat inactivated FBS (Gibco, Life Technologies).\nFor toxicity assay, HL-60 cells were seeded for 7500 cells/well of 96-well plate. The chemotherapeutic agents were added as 2-fold stock solutions and incubated with cells for 5 days.\nAll other compounds were tested at concentrations 0.1, 1, 10, 100, 1000, and 10 000 nM. […] The percentage of viable cells was calculated by dividing the sample absorbance value with untreated cell control value and multiplying by 100%.\nAll compounds were tested at concentrations of 0.1-10 000 nM.\nIC50 values were determined after average % and standard deviations were transferred to GraphPad Prism 9.1.2. Dose-response curves were generated and the IC50% values of the samples were obtained by non-linear regression analysis (Inhibitor vs. response, variable slope (four parameters)) using the software."}, "MOLM-13 cells [1]": {"system": "MOLM-13 cells", "experiment": "Toxicity assay of chemotherapeutic agents, MOLM-13 cells (PrestoBlue viability)", "assay_type": "cell-based, human", "settings": "4 days", "protocol": "For toxicity assay, MOLM-13 cells were seeded for 10 000 cells/well of 96-well plate. The tested chemotherapeutic agents were added as 2-fold stock solutions and incubated in duplicate with cells for 4 days. The compounds were tested at concentrations 0.1, 1, 10, 100, 1000, and 10 000 nM. […] After 4 days incubation, the viability of the cells was determined with PrestoBlue Cell Viability Reagent (Life Technologies) according to the manufacturer's instructions. The percentage of viable cells was calculated by dividing the sample absorbance value with untreated cell control value and multiplying by 100%."}, "patient blasts": {"system": "patient blasts", "experiment": "Ex vivo AML patient samples, viable blasts by flow cytometry, 5-day assay", "assay_type": "cell-based, human", "settings": "five days; for activity against blasts: AML patient samples; for IC50: six AML patient samples, read-out: median IC50 (absolute) against blasts", "protocol": "(§1) AML cells were rapidly thawed in a 37° C. water bath and treated with Denarase (250 U/μl). The cells were cultured in SFEM II medium ([…] Technologies) supplemented with 20 ng/ml SCF, 20 ng/ml TPO, and 20 ng/ml FLT3-L. The compounds were added the same day to 96-well conical bottom plates at seven different concentrations using an acoustic liquid handling device (Echo 550, Labcyte Inc), on top of 10 μl of culturing medium/well. A total of 100,000 cells were seeded per well in a volume of 100 μl. […] All antibodies were obtained from BD biosciences and used at a dilution of 1:100, except CD3 in 1:50. Following a 20-minute incubation with the antibodies, the cells were centrifuged, and 25 μl of Annexin-V and 7-AAD mixture, both diluted 1:50 in Annexin V binding buffer, were added to each well. After a 10-minute incubation, the total number of viable blasts (CD34 or CD117), lymphocytes (CD3) and CD33-positive cells in each well was counted using Forecyte software (Sartorius) and normalized to DMSO control containing wells.\n(§2) The AML samples were exposed to LNAuM, lintuzumab, MMAU, or gemtuzumab ozogamicin (GO; Mylotarg, Pfizer) for five days, after which remaining viable blast and lymphocytes were quantified using flow cytometry. […] Subsequently, we assessed toxicity against lymphocytes (CD33-negative) in the same samples."}, "patient lymphocytes": {"system": "patient lymphocytes", "experiment": "Ex vivo AML patient samples, viable lymphocytes by flow cytometry, 5-day assay", "settings": "CD33-negative lymphocytes in AML patient samples, five days", "protocol": "as §1, §2"}, "MOLM-13 cells [2]": {"system": "MOLM-13 cells", "experiment": "MOLM-13 cell mouse xenograft efficacy study", "settings": "for toxicity in mice: clinical signs, general behavior, macroscopic changes in major organs; for Average tumor size / Tumor size of individual mice / TGI (average tumor size compared to Vehicle): day 15 after tumor inoculation, combination of the two; for Average tumor size / Tumor size of individual mice: LNAuM 0.3 mg/kg single dose i.v., venetoclax 100 mg/kg p.o. daily; for TGI (average tumor size compared to Vehicle): LNAuM 0.3 mg/kg single dose"}, "[3]": {"settings": "Homo sapiens, 120 h, HL-60 cells, 5 days incubation, read-out: IC50"}},
  "note": "Where “and” joins values, the source holds several entries; their conditions need not be identical. Identical values can stand only once. Counter-ions that a name gives are not always drawn. Like-named read-outs stand apart in the source and are kept apart here.",
  "data": [
    {"compound": "Nc1ccn([C@@H]2O[C@H](CO)[C@@H](O)[C@@H]2O)c(=O)n1", "note": "[Cytarabine]", "values": [
      {"measurement": "IC50", "setting": "KG-1 cells; Homo sapiens, 96 h", "result": 230, "unit": "nM"},
      {"measurement": "IC50", "setting": "HL-60 cells; [3]", "result": 298, "unit": "nM"},
      {"measurement": "IC50", "setting": "MOLM-13 cells [1]; Homo sapiens, 96 h", "result": 112, "unit": "nM"}
    ]},
    {"compound": "COc1cccc2c1C(=O)c1c(O)c3c(c(O)c1C2=O)C[C@@](O)(C(C)=O)C[C@@H]3O[C@H]1C[C@H](N)[C@H](O)[C@H](C)O1", "note": "[Daunorubicin-HCl]", "values": [
      {"measurement": "IC50", "setting": "KG-1 cells; Homo sapiens, 96 h", "result": 55, "unit": "nM"},
      {"measurement": "IC50", "setting": "HL-60 cells; Homo sapiens, HL-60, 120 h", "result": 15, "unit": "nM"},
      {"measurement": "IC50", "setting": "MOLM-13 cells [1]; Homo sapiens, 96 h", "result": 13, "unit": "nM"}
    ]},
    {"compound": "CCC(C)C(C(CC(=O)N1CCCC1C(OC)C(C)C(=O)NC(C)C(OC1OC(C(=O)O)C(O)C(O)C1O)c1ccccc1)OC)N(C)C(=O)C(NC(=O)C(NC)C(C)C)C(C)C", "note": "[MMAU, monomethylauristatin E β-D-glucuronide]", "values": [
      {"measurement": "activity against blasts", "setting": "patient blasts", "result": "modest or no activity"},
      {"measurement": "cytotoxic activity against lymphocytes", "setting": "patient lymphocytes", "result": "did not exhibit cytotoxic activity"}
    ]},
    {"compound": "CO[C@@H]1[C@H](N(C)C(=O)c2ccccc2)C[C@H]2O[C@]1(C)n1c3ccccc3c3c4c(c5c6ccccc6n2c5c31)C(=O)NC4", "note": "[Midostaurin]", "values": [
      {"measurement": "IC50", "setting": "MOLM-13 cells [1]; Homo sapiens, 96 h", "result": 14, "unit": "nM"}
    ]},
    {"compound": "CC1(C)CCC(CN2CCN(c3ccc(C(=O)NS(=O)(=O)c4ccc(NCC5CCOCC5)c([N+](=O)[O-])c4)c(Oc4cnc5[nH]ccc5c4)c3)CC2)=C(c2ccc(Cl)cc2)C1", "note": "[Venetoclax]", "values": [
      {"measurement": "IC50", "setting": "KG-1 cells; Homo sapiens, 96 h", "result": 2300, "unit": "nM"},
      {"measurement": "toxicity in mice", "setting": "MOLM-13 cells [2]", "result": "no toxicity"},
      {"measurement": "Average tumor size", "setting": "MOLM-13 cells [2]", "result": 194, "unit": "mm^3"},
      {"measurement": "Tumor size of individual mice", "setting": "MOLM-13 cells [2]", "result": "134.946 mm^3 and 184.96 mm^3 and 249.64 mm^3 and 246.895 mm^3 and 122.793 mm^3 and 226.1475 mm^3"},
      {"measurement": "TGI (average tumor size compared to Vehicle)", "setting": "MOLM-13 cells [2]; venetoclax 100 mg/kg", "result": 0.45},
      {"measurement": "IC50", "setting": "HL-60 cells; [3]", "result": 112, "unit": "nM"},
      {"measurement": "IC50", "setting": "MOLM-13 cells [1]; Homo sapiens, 96 h", "result": 24, "unit": "nM"}
    ]},
    {"compound": "Gilteritinib hemifumarate", "values": [
      {"measurement": "IC50", "setting": "KG-1 cells", "result": 1700, "unit": "nM"},
      {"measurement": "IC50", "setting": "HL-60 cells; read-out: IC50", "result": 425, "unit": "nM"},
      {"measurement": "IC50", "setting": "MOLM-13 cells [1]", "result": 24, "unit": "nM"}
    ]},
    {"compound": "LNAuM: antibody-drug-conjugate (ADC) comprising the lintuzumab antibody, conjugated to MMAU, via a cleavable linker", "values": [
      {"measurement": "IC50", "setting": "patient blasts", "result": 16, "unit": "nM"},
      {"measurement": "tumors disappeared and did not regrow during the whole study", "setting": "MOLM-13 cells [2]; LNAuM single dose of 3 mg/kg", "result": "6/6"},
      {"measurement": "tumor growth versus control group", "setting": "MOLM-13 cells [2]; all doses (LNAuM 0.1-3 mg/kg single dose; venetoclax 100 mg/kg, 10 daily doses)", "result": "inhibited tumor growth"},
      {"measurement": "toxicity in mice", "setting": "MOLM-13 cells [2]", "result": "no toxicity"},
      {"measurement": "Average tumor size", "setting": "MOLM-13 cells [2]", "result": 201, "unit": "mm^3"},
      {"measurement": "Tumor size of individual mice", "setting": "MOLM-13 cells [2]", "result": "204.723 mm^3 and 229.992 mm^3 and 239.704 mm^3 and 153.6 mm^3 and 106.624 mm^3 and 271.472 mm^3"},
      {"measurement": "TGI (average tumor size compared to Vehicle)", "setting": "MOLM-13 cells [2]; venetoclax 100 mg/kg", "result": 0.46},
      {"measurement": "outcome at study end", "setting": "MOLM-13 cells [2]; day 54 after tumor inoculation, venetoclax 100 mg/kg, LNAuM 1 mg/kg, combination", "result": "two animals were sacrificed due to tumor growth, and in the rest of the animals there was a palpable tumor"},
      {"measurement": "cytotoxic activity against lymphocytes", "setting": "patient lymphocytes", "result": "did not exhibit cytotoxic activity"}
    ]},
    {"compound": "gemtuzumab ozogamicin [GO]", "values": [
      {"measurement": "IC50", "setting": "patient blasts", "result": 0.3, "unit": "nM"},
      {"measurement": "cytotoxic activity against lymphocytes", "setting": "patient lymphocytes", "result": "significant lymphocyte toxicity"},
      {"measurement": "IC50", "setting": "patient lymphocytes; read-out: median IC50 against lymphocytes", "result": 9, "unit": "nM"}
    ]},
    {"compound": "lintuzumab: anti-CD33 antibody comprising the light chain of SEQ ID NO:1 and the heavy chain of SEQ ID NO:2", "values": [
      {"measurement": "activity against blasts", "setting": "patient blasts", "result": "modest or no activity"},
      {"measurement": "tumor growth inhibition", "setting": "MOLM-13 cells [2]; lintuzumab naked antibody 10 mg/kg single dose, non-binding IgG1 ADC control 3 mg/kg single dose", "result": "only modest tumor growth inhibition"},
      {"measurement": "cytotoxic activity against lymphocytes", "setting": "patient lymphocytes", "result": "did not exhibit cytotoxic activity"}
    ]}
  ]
}
